Source: ChEMBL document CHEMBL1127250, “3,4-Di-o-()-camphanoyl-(+)-ciskhellactone and related compounds: A. new class of potent anti-HIV agents” (Bioorg Med Chem Lett, 1994)
pEC50, pIC50: −log10 of the molar value.

Tests used:
[1] = Therapeutic index was determined; Value is >222 but < 1,111; conditions: read-out: TI
[2] = Effective concentration against HIV-1 infection in peripheral blood mononuclear cells was determined; type: functional; conditions: Homo sapiens
[3] = Therapeutic index was determined; Value is >78049 but < 390244; conditions: read-out: TI
[4] = Therapeutic index was determined; Value is >3,125 but < 15,625; conditions: read-out: TI
H9 [5] = test: Compound was tested for inhibitory activity against HIV-1 replication in H9 lymphocyte cells; Activity range >32 but <160; type: functional, cell-based; conditions: Homo sapiens
H9 [6] = test: Effective concentration against HIV-1 replication in H9 lymphocyte cells was determined; type: functional, cell-based; conditions: Homo sapiens
U-937 = test: Effective concentration against HIV-1 infection in U-937 cell line was determined; type: functional, cell-based; conditions: Homo sapiens
H9 [7] = test: Compound was tested for inhibitory activity against HIV-1 replication in H9 lymphocyte cells; Activity >6.4 but < 32; type: functional, cell-based; conditions: Homo sapiens
H9 [8] = test: Effective concentration against HIV-1 replication in H9 lymphocyte cells was determined; Activity >6.4 but < 32; type: functional, cell-based; conditions: Homo sapiens
[9] = Therapeutic index was determined; conditions: read-out: TI
H9 [10] = test: Compound was tested for inhibitory activity against HIV-1 replication in H9 lymphocyte cells; type: functional, cell-based; conditions: Homo sapiens

| SMILES | pEC50 (H9 [6]) | selectivity ratio [9] | pIC50 (H9 [10]) | other results |
| --- | --- | --- | --- | --- |
| CC1(C)Oc2ccc3ccc(=O)oc3c2[C@@H](OC(=O)C23CCC(C)(C(=O)O2)C3(C)C)[C@H]1OC(=O)C12CCC(C)(C(=O)O1)C2(C)C (stereo not given in full) | 9.39 |  |  | selectivity ratio [1]: > 222; pEC50 [2]: 7.54; selectivity ratio [3]: < 390000; selectivity ratio [4]: > 3120; pIC50 (H9 [5]): > 3.80; pEC50 (U-937): 8.68 |
| CC1(C)Oc2ccc3ccc(=O)oc3c2[C@H](OC(=O)C23CCC(C)(C(=O)O2)C3(C)C)[C@H]1OC(=O)C12CCC(C)(C(=O)O1)C2(C)C (stereo not given in full) |  | > 1 |  | pIC50 (H9 [7]): > 4.49; pEC50 (H9 [8]): > 4.49 |
| CC1(C)Oc2ccc3ccc(=O)oc3c2[C@H](OC(=O)C23CCC(C)(C(=O)O2)C3(C)C)[C@@H]1OC(=O)C12CCC(C)(C(=O)O1)C2(C)C (stereo not given in full) | 4.29 | > 33.3 | 2.77 |  |
| CC1(C)Oc2ccc3ccc(=O)oc3c2[C@@H](OC(=O)C23CCC(C)(C(=O)O2)C3(C)C)[C@@H]1OC(=O)C12CCC(C)(C(=O)O1)C2(C)C (stereo not given in full) | 4.49 | > 1 | < 4.49 |  |
| CC(=O)O[C@@H]1[C@H](OC(=O)CC(C)C)c2c(ccc3ccc(=O)oc23)OC1(C)C [SUKSDORFIN] | 5.89 | > 40 | < 4.28 |  |
| Cc1cn([C@H]2C[C@H](N=[N+]=[N-])[C@@H](CO)O2)c(=O)[nH]c1=O [ZIDOVUDINE] | 6.82 |  |  |  |
